Laboratory results published in patent US8778966B2, “Quinolinone derivatives as PARP and tank inhibitors” (Janssen Pharmaceutica, NV, priority 2007, dated 2014).

Experiments:
[1] = test system: HCT116 cells; assay: Mitotic arrest assay on HCT116 cells (phospho-histone H3 Ser10); assay type: cell-based, human; settings: lowest active dose; for Mitotic arrest HCT116 LAD: HCT116 cells, the values are: pLAD (−log M lowest active dose); for minimal effective concentration: Homo sapiens, HCT-116, HCT116 cells, read-out: Mitotic arrest HCT116 LAD (converted)
Summary of the method: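 Seeded overnight, then compound-treated 6 h at 37 °C (≤0.1% DMSO); fixed, stained with Alexa Fluor 488 anti-phospho-H3 (Ser10) plus Hoechst 33342, imaged on InCell Analyzer 1000. Blank-subtracted signal divided by SD (sigma), triplicate; value is lowest dose giving sigma >5 (LAD).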

[2] = test system: tubulin; assay: Tubulin polymerization assay; assay type: biochemical; set-up: key: a compound showing 0 to 50% inhibition at 20 μM is reported as score 1; Score 2 compounds are defined as compound showing more than 50% inhibition at 20 μM and less than 50% inhibition at 5 μM; a compound showing more than 50% inhibition at 5 μM is reported as score 3; settings: tested at 20 μM and 5 μM
Summary of the method: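 Cytoskeleton kit tubulin was run in a 10 µl final volume at 37 °C, with fluorescence read every minute for 1 h. Polymerization was taken as the maximum slope (4-point linear regression) and expressed as % of no-compound control. Compounds were tested at 20 µM, then at 5 µM if inhibition exceeded 50%, and scored by % inhibition.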

[3] = test system: PC3 cells; assay: EB1 Comet (microtubule disruption) assay; assay type: cell-based, human; settings: 1 hour treatment; for minimal effective concentration: Homo sapiens, PC-3, 1 h, read-out: EB1 pLAC (converted)
Summary of the method: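 PC3 human prostate cancer cells exposed to compound for 1 h at 37 °C (0.6% DMSO final), methanol-fixed, immunostained for Eb1 and imaged at 20×. Value is the lowest active concentration (LAC): the concentration at which Eb1 foci are absent in at least 50% of treated cells.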

Structure (SMILES)	melting point	Mitotic arrest HCT116 LAD [1]	tubulin polymerisation score [2]	minimal effective concentration [3]	minimal effective concentration [1]	EB1 pLAC [3]
CCc1cc2ccc([C@](C)(C#N)Cc3cccc(C#N)c3)cc2[nH]c1=O (single isomer, unassigned) [Compound 269]	–	–	2	0.1 µM	0.1 µM	–
C#Cc1cccc(C[C@](C)(C#N)c2ccc3cc(CC)c(=O)[nH]c3c2)c1 [Compound 2]	125 °C	–	1 (a compound showing 0 to 50% inhibition at 20 μM is reported as score 1)	–	10 µM	–
C#Cc1cccc(C[C@@](C)(C#N)c2ccc3cc(CC)c(=O)[nH]c3c2)c1 [Compound 3]	128 °C	–	2	0.01 µM	0.01 µM	–
CCc1cc2ccc(C(C#N)(CC)Cc3ccccc3)cc2[nH]c1=O (stereo not drawn) [Compound 32]	198 °C	–	1 (a compound showing 0 to 50% inhibition at 20 μM is reported as score 1)	1 µM	1 µM	–
COc1ccccc1-c1nc(CC(C)(C#N)c2ccc3cc(C)c(=O)[nH]c3c2)no1 (stereo not drawn) [Compound 33]	130 °C	–	1 (a compound showing 0 to 50% inhibition at 20 μM is reported as score 1)	–	1 µM	–
Cc1cc2ccc(C(C)(C#N)Cc3cccc(C#N)c3)cc2[nH]c1=O (stereo not drawn) [Compound 34]	260 °C	–	–	0.316 µM	0.1 µM	–
Cc1cc2ccc([C@@](C)(C#N)Cc3cccc(C#N)c3)cc2[nH]c1=O [Compound 35]	233 °C	–	–	–	3.16 µM	–
Cc1cc2ccc([C@](C)(C#N)Cc3cccc(C#N)c3)cc2[nH]c1=O [Compound 36]	226 °C	–	1 (a compound showing 0 to 50% inhibition at 20 μM is reported as score 1)	0.316 µM	0.1 µM	–
Cc1cc2ccc(C(C)(C#N)Cc3cccc(Cl)c3)cc2[nH]c1=O (stereo not drawn) [Compound 37]	242 °C	–	1 (a compound showing 0 to 50% inhibition at 20 μM is reported as score 1)	3.16 µM	0.1 µM	–
CC(C)c1cc2ccc(C(C)(C#N)Cc3ccccc3)cc2[nH]c1=O (stereo not drawn) [Compound 38]	178 °C	–	–	–	3.16 µM	–
CC(=O)c1cc2ccc(C(C)(C#N)Cc3ccccc3)cc2[nH]c1=O (stereo not drawn) [Compound 39]	194 °C	–	–	–	3.16 µM	–
CCc1cc2ccc(C(C)(C#N)Cc3cccc(CCC#N)c3)cc2[nH]c1=O (stereo not drawn) [Compound 169]	149 °C	6	–	–	–	6
CCc1cc2ccc(C(C)(C#N)Cc3cccc(CN)c3)cc2[nH]c1=O (stereo not drawn) [Compound 290]	–	–	1 (a compound showing 0 to 50% inhibition at 20 μM is reported as score 1)	3.16 µM	0.3 µM	–
CCc1cc2ccc(C(C)(C#N)Cc3cccc(C#N)n3)cc2[nH]c1=O (stereo not drawn) [Compound 329]	–	–	3 (a compound showing more than 50% inhibition at 5 μM is reported as score 3)	0.316 µM	0.3 µM	–
CCc1cc2ccc(C(C)(C#N)Cc3nc4ccccc4n3C)cc2[nH]c1=O (stereo not drawn) [Compound 338]	–	–	2	1 µM	0.3 µM	–
CCc1cc2ccc(C(C)(C#N)Cc3cccc(CO)n3)cc2[nH]c1=O (stereo not drawn) [Compound 345]	–	–	2	–	0.3 µM	–
CCc1cc2ccc(C(C)(C#N)Cc3cccc(OC)n3)cc2[nH]c1=O (stereo not drawn) [Compound 353]	–	–	2	–	0.3 µM	–
CCc1cc2ccc(C(C)(C#N)Cc3cc(OC)nc(OC)n3)cc2[nH]c1=O (stereo not drawn) [Compound 358]	–	–	2	–	0.3 µM	–
CCc1cc2ccc(C(C)(C#N)Cc3nc(Cl)cc(N(C)C)n3)cc2[nH]c1=O (stereo not drawn) [Compound 359]	–	–	2	0.1 µM	0.1 µM	–
CCc1cc2ccc(C(C)(C#N)Cc3nccc(OC)n3)cc2[nH]c1=O (stereo not drawn) [Compound 360]	–	–	2	1 µM	1 µM	–

More lines, main results first:

melting point	Structure (SMILES)	Mitotic arrest HCT116 LAD [1]	tubulin polymerisation score [2]	minimal effective concentration [3]	minimal effective concentration [1]	EB1 pLAC [3]
121 °C	CCc1cc2ccc(C(C)(C#N)Cc3cccc(C#N)n3)cc2[nH]c1=O (single isomer, unassigned) [Compound 206]	5	1 (a compound showing 0 to 50% inhibition at 20 μM is reported as score 1)	–	–	–
133 °C	CCc1cc2ccc(C(C)(C#N)Cc3cccc(C#N)n3)cc2[nH]c1=O (single isomer, unassigned) [Compound 207]	7	3 (a compound showing more than 50% inhibition at 5 μM is reported as score 3)	0.1 µM	–	–
130 °C	C=Cc1cccc(CC(C)(C#N)c2ccc3cc(CC)c(=O)[nH]c3c2)c1 (stereo not drawn) [Compound 172]	–	–	0.1 µM	0.3 µM	–
202 °C	CCc1cc2cc(F)c(C(C)(C#N)Cc3cccc(C#N)c3)cc2[nH]c1=O (stereo not drawn) [Compound 175]	–	–	1 µM	0.3 µM	–
204 °C	CCc1c(C)c2ccc(C(C)(C#N)Cc3cccc(C#N)c3)cc2[nH]c1=O (stereo not drawn) [Compound 181]	–	–	0.316 µM	0.3 µM	–
130 °C	CCc1cc2cc(OCCOC)c(C(C)(C#N)Cc3cccc(C#N)c3)cc2[nH]c1=O (stereo not drawn) [Compound 182]	–	–	–	10 µM	–
182 °C	CCc1cc2ccc(C(C)(C#N)Cc3cccc(C#CCO)c3)cc2[nH]c1=O (stereo not drawn) [Compound 183]	–	–	< 0.0316 µM	0.1 µM	–
176 °C	CCc1cc2ccc(C(F)(C#N)Cc3ccccc3)cc2[nH]c1=O (stereo not drawn) [Compound 187]	–	–	5.62 µM	3 µM	–
136 °C	CCc1cc2ccc(C(C)(C#N)CN(C)Cc3ccccc3)cc2[nH]c1=O (stereo not drawn) [Compound 189]	–	–	1 µM	1 µM	–
198 °C	CCc1cc2ccc(C(C)(C#N)C(C)c3ccccc3)cc2[nH]c1=O (stereo not drawn) [Compound 198]	–	–	0.316 µM	0.3 µM	–
250 °C	CCc1cc2ccc([C@](C)(C#N)[C@@H](C)c3ccccc3)cc2[nH]c1=O [Compound 199]	–	–	–	3 µM	–
140 °C	C#Cc1cccc(CC(C)(C#N)c2ccc3cc(CC)c(=O)[nH]c3c2)n1 (stereo not drawn) [Compound 211]	–	–	0.1 µM	1 µM	–
115 °C	CCc1cc2ccc(C(C)(C#N)Cc3cccc(N(C)C)n3)cc2[nH]c1=O (stereo not drawn) [Compound 213]	–	–	0.316 µM	0.3 µM	–
131 °C	CCc1cc2ccc(C(C)(C#N)Cc3cccc(I)n3)cc2[nH]c1=O (stereo not drawn) [Compound 214]	–	–	0.1 µM	0.3 µM	–
60 °C	CCOC(=O)c1cccc(CC(C)(C#N)c2ccc3cc(CC)c(=O)[nH]c3c2)n1 (stereo not drawn) [Compound 215]	–	–	0.316 µM	1 µM	–
153 °C	CCc1cc2ccc(C(C)(C#N)Cc3cccc(COC)n3)cc2[nH]c1=O (stereo not drawn) [Compound 216]	–	–	1 µM	1 µM	–
65 °C	CCc1cc2ccc(C(C)(C#N)Cc3cccc(CN)n3)cc2[nH]c1=O (stereo not drawn) [Compound 221]	–	–	3.16 µM	3 µM	–
